Source: ChEMBL document CHEMBL1136141, “2-Phenyl-5,6-dihydro-2H-thieno[3,2-c]pyrazol-3-ol derivatives as new inhibitors of bacterial cell wall biosynthesis” (Bioorg Med Chem Lett, 2003)
Converted amounts (≈) assume the structure as drawn.

Key:
[1] = biological target: T1, UDP-N-acetylenolpyruvoylglucosamine reductase (Staphylococcus aureus, UniProt P61431); experiment: In vitro inhibitory activity against Staphylococcus aureus UDP-N-acetylmuramate dehydrogenase
T1 sequence (P61431 whole entry): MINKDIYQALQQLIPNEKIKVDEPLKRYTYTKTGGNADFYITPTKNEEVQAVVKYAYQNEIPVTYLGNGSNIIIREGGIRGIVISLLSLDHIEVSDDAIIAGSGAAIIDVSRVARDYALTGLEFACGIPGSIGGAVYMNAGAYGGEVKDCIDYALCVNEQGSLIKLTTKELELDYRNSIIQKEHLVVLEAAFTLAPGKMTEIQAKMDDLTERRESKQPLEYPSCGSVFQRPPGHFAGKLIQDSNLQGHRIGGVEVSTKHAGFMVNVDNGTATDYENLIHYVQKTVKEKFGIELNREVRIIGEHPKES

[2] = Minimum inhibitory activity in presence of 4% bovine serum albumin against Streptococcus pneumoniae GC1894 (PRSP); type: functional
Staphylococcus aureus [3] = experiment: Minimum inhibitory activity against Staphylococcus aureus GC 2216 (ATCC); type: functional
[4] = Minimum inhibitory activity against MSCNS GC 646; type: functional; conditions: Staphylococcus
[5] = biological target: T2, UDP-N-acetylmuramoylalanine--D-glutamate ligase (Staphylococcus aureus, UniProt P0A091); experiment: In vitro inhibitory activity against Staphylococcus aureus UDP-N-acetylmuramoyl-L-alanyl-D-glutamate synthetase
T2 sequence (P0A091 whole entry): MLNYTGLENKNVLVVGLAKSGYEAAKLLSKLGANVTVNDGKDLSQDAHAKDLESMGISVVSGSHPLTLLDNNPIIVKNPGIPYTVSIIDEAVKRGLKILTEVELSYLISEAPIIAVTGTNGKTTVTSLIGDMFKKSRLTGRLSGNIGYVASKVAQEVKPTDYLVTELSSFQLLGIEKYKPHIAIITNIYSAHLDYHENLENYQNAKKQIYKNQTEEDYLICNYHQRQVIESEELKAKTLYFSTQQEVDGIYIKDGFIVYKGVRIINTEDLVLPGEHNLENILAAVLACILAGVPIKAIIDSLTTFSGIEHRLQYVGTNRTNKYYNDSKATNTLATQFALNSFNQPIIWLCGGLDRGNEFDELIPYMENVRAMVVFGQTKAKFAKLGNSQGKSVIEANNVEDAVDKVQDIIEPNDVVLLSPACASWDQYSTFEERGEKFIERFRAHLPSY

Enterococcus faecalis [6] = experiment: Minimum inhibitory activity against Enterococcus faecalis GC 2242 (VRE); type: functional
Enterococcus faecalis [7] = experiment: Minimum inhibitory activity against Enterococcus faecalis GC 4555 (ATCC); type: functional
Escherichia coli [8] = experiment: Minimum inhibitory activity against Escherichia coli GC 4559; type: functional
Staphylococcus aureus [9] = experiment: Minimum inhibitory activity against Staphylococcus aureus GC 1131 (MRSA); type: functional
[10] = biological target: T3, UDP-N-acetylmuramate--L-alanine ligase (Staphylococcus aureus, UniProt O31211); experiment: In vitro inhibitory activity against Staphylococcus aureus UDP-N-acetylmuramoyl-L-alanine synthetase
T3 sequence (O31211 whole entry): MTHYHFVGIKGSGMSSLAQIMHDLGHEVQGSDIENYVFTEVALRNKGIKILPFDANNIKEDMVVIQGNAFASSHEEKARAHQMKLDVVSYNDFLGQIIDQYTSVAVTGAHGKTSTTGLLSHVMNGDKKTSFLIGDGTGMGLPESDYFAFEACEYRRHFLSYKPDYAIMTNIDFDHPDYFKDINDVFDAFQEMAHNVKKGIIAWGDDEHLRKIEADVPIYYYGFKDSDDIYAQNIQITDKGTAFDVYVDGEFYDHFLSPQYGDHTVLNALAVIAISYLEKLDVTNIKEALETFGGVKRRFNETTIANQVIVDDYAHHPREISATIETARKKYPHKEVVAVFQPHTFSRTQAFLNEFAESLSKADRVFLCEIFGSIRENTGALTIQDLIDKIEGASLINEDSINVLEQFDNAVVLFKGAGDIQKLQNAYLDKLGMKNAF

Escherichia coli [11] = experiment: Minimum inhibitory activity against Escherichia coli GC 4560; type: functional
[12] = Minimum inhibitory activity against Streptococcus pneumoniae GC1894 (PRSP); type: functional
Staphylococcus aureus [13] = experiment: Minimum inhibitory activity against Staphylococcus aureus GC 4543 (MSSA); type: functional
Bacteria = experiment: Minimum inhibitory activity against gram negative bacteria; type: functional
[14] = Partition coefficient (logP); type: physicochemical; conditions: octanol/water

Compound | IC50 [1] [µM] | MIC [2] [µg/mL] | MIC (Staphylococcus aureus [3]) [µg/mL] | MIC [4] [µg/mL] | IC50 [5] [µM] | MIC (Enterococcus faecalis [6]) [µg/mL] | MIC (Enterococcus faecalis [7]) [µg/mL] | MIC (Escherichia coli [8]) [µg/mL] | MIC (Staphylococcus aureus [9]) [µg/mL] | IC50 [10] [µM] | MIC (Escherichia coli [11]) [µg/mL] | MIC [12] [µg/mL] | MIC (Staphylococcus aureus [13]) [µg/mL] | MIC (Bacteria) [µg/mL] | logP [14]
O=[N+]([O-])c1ccc(-n2nc3c(c2O)SCC3)cc1 | 21.3 | > 128 | 4 (≈ 15.2 µM) | 1 (≈ 3.8 µM) | 36.1 | 64 (≈ 243 µM) | 32 (≈ 122 µM) | > 128 | 64 (≈ 243 µM) | 72.5 | > 128 | 4 (≈ 15.2 µM) | 2 (≈ 7.6 µM) | – | –
Oc1c2c(nn1-c1cccc(C(F)(F)F)c1)CCS2 | 73.4 | > 128 | 2 (≈ 6.99 µM) | 2 (≈ 6.99 µM) | 67.1 | 8 (≈ 27.9 µM) | 16 (≈ 55.9 µM) | > 128 | 4 (≈ 14 µM) | > 87.3 | 128 (≈ 447 µM) | 0.5 (≈ 1.75 µM) | 1 (≈ 3.49 µM) | – | –
N#Cc1cccc(-n2nc3c(c2O)SCC3)c1 | 57.5 | > 128 | 8 (≈ 32.9 µM) | 2 (≈ 8.22 µM) | 46.9 | 8 (≈ 32.9 µM) | 8 (≈ 32.9 µM) | > 128 | 32 (≈ 132 µM) | 54.7 | 64 (≈ 263 µM) | 4 (≈ 16.4 µM) | 16 (≈ 65.8 µM) | – | –
Oc1c2c(nn1-c1ccc(Cl)c(Cl)c1)CSC2 | > 87.1 | – | – | – | – | – | – | – | – | – | – | – | – | 32 (≈ 111 µM) | –
Oc1c2c(nn1-c1ccc(Cl)cc1)CC(c1ccccc1)S2 (stereo unspecified) | 33.5 | > 128 | 64 (≈ 195 µM) | 128 (≈ 389 µM) | 74.5 | 64 (≈ 195 µM) | > 128 | > 128 | 128 (≈ 389 µM) | > 76 | 128 (≈ 389 µM) | 64 (≈ 195 µM) | 128 (≈ 389 µM) | – | –
Oc1c2c(nn1-c1ccc(Cl)cc1)COC2 | > 106 | – | – | – | – | – | – | – | – | – | – | – | – | > 128 | –
O=[N+]([O-])c1cccc(-n2nc3c(c2O)SCC3)c1 | 23.5 | > 128 | 16 (≈ 60.8 µM) | 32 (≈ 122 µM) | 34.6 | 32 (≈ 122 µM) | 64 (≈ 243 µM) | > 128 | 32 (≈ 122 µM) | 87.7 | > 128 | 4 (≈ 15.2 µM) | 32 (≈ 122 µM) | – | –

Second part, the compound after the results:

IC50 [1] [µM] | MIC [2] [µg/mL] | MIC (Staphylococcus aureus [3]) [µg/mL] | MIC [4] [µg/mL] | IC50 [5] [µM] | MIC (Enterococcus faecalis [6]) [µg/mL] | MIC (Enterococcus faecalis [7]) [µg/mL] | MIC (Escherichia coli [8]) [µg/mL] | MIC (Staphylococcus aureus [9]) [µg/mL] | IC50 [10] [µM] | MIC (Escherichia coli [11]) [µg/mL] | MIC [12] [µg/mL] | MIC (Staphylococcus aureus [13]) [µg/mL] | MIC (Bacteria) [µg/mL] | logP [14] | Compound
> 96 | > 128 | 128 (≈ 492 µM) | 128 (≈ 492 µM) | > 96 | > 128 | > 128 | > 128 | 128 (≈ 492 µM) | > 96 | > 128 | 32 (≈ 123 µM) | 128 (≈ 492 µM) | – | – | CC(C)c1ccc(-n2nc3c(c2O)SCC3)cc1
831 | – | – | – | – | – | – | – | – | – | – | – | – | > 128 | – | Oc1c2c(nn1-c1ccc(Cl)cc1)CSC2
28.1 | > 128 | 2 (≈ 7.91 µM) | 4 (≈ 15.8 µM) | 45.5 | 16 (≈ 63.3 µM) | 16 (≈ 63.3 µM) | > 128 | 16 (≈ 63.3 µM) | 40 | > 128 | 1 (≈ 3.96 µM) | 2 (≈ 7.91 µM) | – | 3.06 | Oc1c2c(nn1-c1ccc(Cl)cc1)CCS2
> 98.9 | > 128 | 8 (≈ 31.7 µM) | 32 (≈ 127 µM) | 32.8 | 8 (≈ 31.7 µM) | 32 (≈ 127 µM) | > 128 | 32 (≈ 127 µM) | 62.5 | > 128 | 2 (≈ 7.91 µM) | 32 (≈ 127 µM) | – | – | Oc1c2c(nn1-c1cccc(Cl)c1)CCS2
